Patent US20250197382A1, “KIF18A INHIBITOR” (WIGEN BIOMEDICINE TECHNOLOGY (SHANGHAI) CO., LTD., priority 2022, published 2025)

biological target: Recombinant human KIF18A (1-467His-tagged) protein (Homo sapiens (Human), UniProt Q8NI77); assay: KIF18A enzyme assay (microtubule-stimulated ATPase activity, ADP-Glo); type: biochemical; conditions: 30 nM KIF18A, ATP 75 μM, read-out: inhibitory activity against KIF18A IC50
Experimental: Biological Example 1. Assay for In Vitro Inhibition of Enzymatic Activity of KIF18A by Compounds of the Present Invention
KIF18A enzyme assay: The enzymatic activity of KIF18A after treatment with the compounds was measured by an assay of microtubule-stimulated ATPase activity. ADP generated from the ATPase reaction was measured in this assay. The compounds were serially diluted 2-fold in DMSO over a range of 22 concentration points. Recombinant human KIF18A (1-467His-tagged) protein was expressed using a baculovirus system. Concentrations of KIF18A protein, microtubules, and ATP in the reaction were optimized for a standardized homogenous enzyme assay using an ADP-Glo kinase/ATPase assay kit. A reaction buffer [(15 mM Tris, pH 7.5), 10 mM MgCl2, 0.01% PluronicF-68, 1 μM paclitaxel, and 30 μg/mL pig microtubules] was prepared. The compounds and KIF18A protein (30 nM) were added to the prepared reaction buffer, and the reaction mixture was incubated at room temperature for 15 min, followed by addition of ATP (Km, 75 μM). The resulting reaction mixture was incubated at room temperature for another 15 min. 5 μL of ADP-Glo reagent and 2.5 μL of the reaction mixture were mixed and the resulting mixture was incubated at room temperature for 40 min. 10 μL of ADP-Glo detection reagent was added and the mixture was incubated at room temperature for 40 min. Luminescence was measured using a microplate reader and compared with that of the DMSO group, and then the inhibition percentages and IC50 values of the compounds were calculated.

Chain of Recombinant human KIF18A (1-467His-tagged) protein (Q8NI77 1-467): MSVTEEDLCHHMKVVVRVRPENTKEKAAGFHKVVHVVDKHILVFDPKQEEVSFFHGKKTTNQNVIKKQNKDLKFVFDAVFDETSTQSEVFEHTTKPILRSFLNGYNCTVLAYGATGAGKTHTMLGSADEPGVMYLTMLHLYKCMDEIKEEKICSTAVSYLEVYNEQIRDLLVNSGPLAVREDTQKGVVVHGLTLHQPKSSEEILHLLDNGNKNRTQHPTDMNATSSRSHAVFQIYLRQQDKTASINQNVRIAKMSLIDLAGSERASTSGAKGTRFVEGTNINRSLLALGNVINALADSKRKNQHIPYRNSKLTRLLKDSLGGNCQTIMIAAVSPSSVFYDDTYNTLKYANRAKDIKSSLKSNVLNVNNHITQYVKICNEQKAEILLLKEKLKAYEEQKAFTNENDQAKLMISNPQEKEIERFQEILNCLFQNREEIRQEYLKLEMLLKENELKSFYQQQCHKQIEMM
Chain of Recombinant human KIF18A (1-467His-tagged) protein (P02550 whole entry partner): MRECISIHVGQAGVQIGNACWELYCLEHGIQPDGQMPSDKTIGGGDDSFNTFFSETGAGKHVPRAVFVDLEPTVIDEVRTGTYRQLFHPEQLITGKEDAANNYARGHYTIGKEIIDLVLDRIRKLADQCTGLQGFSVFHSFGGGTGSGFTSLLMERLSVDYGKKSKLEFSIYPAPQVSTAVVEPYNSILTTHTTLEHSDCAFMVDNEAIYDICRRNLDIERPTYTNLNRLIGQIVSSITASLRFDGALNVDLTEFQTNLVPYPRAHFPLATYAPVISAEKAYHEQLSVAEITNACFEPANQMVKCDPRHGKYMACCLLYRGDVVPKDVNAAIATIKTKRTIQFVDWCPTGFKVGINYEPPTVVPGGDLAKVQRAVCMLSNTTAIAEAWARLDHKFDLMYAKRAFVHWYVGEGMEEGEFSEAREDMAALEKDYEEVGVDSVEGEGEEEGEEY
Chain of Recombinant human KIF18A (1-467His-tagged) protein (P02554 whole entry partner): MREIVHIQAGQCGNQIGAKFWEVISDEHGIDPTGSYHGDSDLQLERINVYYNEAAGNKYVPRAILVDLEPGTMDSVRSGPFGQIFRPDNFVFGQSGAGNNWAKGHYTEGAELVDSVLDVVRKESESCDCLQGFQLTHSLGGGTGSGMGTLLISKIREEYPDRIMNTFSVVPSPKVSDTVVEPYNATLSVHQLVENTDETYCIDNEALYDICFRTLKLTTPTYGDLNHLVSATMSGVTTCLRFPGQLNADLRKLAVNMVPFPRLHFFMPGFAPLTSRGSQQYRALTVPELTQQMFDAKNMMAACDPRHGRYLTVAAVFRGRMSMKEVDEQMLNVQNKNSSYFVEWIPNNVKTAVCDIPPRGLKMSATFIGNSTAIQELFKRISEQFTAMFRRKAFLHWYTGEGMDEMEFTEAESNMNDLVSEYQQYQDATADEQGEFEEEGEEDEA

Row | IC50 | SMILES
1 | ≤ 100 nM | CN1CCc2cc(C(=O)Nc3ccc(NS(=O)(=O)CCO)cc3N3CCC4(CC3)CC4)nc(N3CCC(C)(F)C3)c21 (stereo not drawn) [Compound 360]
2 | ≤ 100 nM | C[C@H](CO)S(=O)(=O)Nc1ccc(NC(=O)c2cc(N3CCC(F)(F)CC3)c3occc3c2)c(N2CCC3(CC2)CC3)c1 [Compound 174]
3 | ≤ 100 nM | O=C(Nc1cc2ccoc2c(OC2CCC2)n1)c1ccc(NS(=O)(=O)CCO)cc1N1CCC2(CC1)CC2 [Compound 199]
4 | ≤ 100 nM | O=C(Nc1cc2ocnc2c(N2CCC(F)(F)CC2)n1)c1ccc(NS(=O)(=O)CCO)cc1N1CCC2(CC1)CC2 [Compound 518]
5 | ≤ 100 nM | O=C(Nc1cc2ccoc2c(N2CCC(F)(F)CC2)n1)c1ccc(NS(=O)(=O)CCO)cc1N1CCC2(CC1)CC2 [Compound 193]
6 | ≤ 100 nM | O=C(Nc1cc2ccoc2c(N2CCOCC2)n1)c1ccc(NS(=O)(=O)CCO)cc1N1CCC2(CC1)CC2 [Compound 204]
7 | ≤ 100 nM | C[C@@H]1CN(c2nc(C(=O)Nc3ccc(S(=O)(=O)NCCO)cc3N3CCC4(CC3)CC4)cc3c2N(C)CC3)CCO1 [Compound 370]
8 | ≤ 100 nM | Cn1ccc2cc(NC(=O)c3ccc(S(=O)(=O)NCCO)cc3N3CCC4(CC3)CC4)cc(N3CC(F)(F)C3)c21 [Compound 404]
9 | ≤ 100 nM | C[C@@H]1CN(c2cc(C(=O)Nc3ccc(S(=O)(=O)NCCO)cc3N3CCC4(CC3)CC4)cc3c2OCC3)CCO1 [Compound 50]
10 | ≤ 100 nM | C[C@@H]1CN(c2cc(C(=O)Nc3ccc(NS(=O)(=O)CCO)cc3N3CCC4(CC3)CC4)cc3ccn(C)c23)CCO1 [Compound 418]
11 | ≤ 100 nM | Cn1ccc2cc(C(=O)Nc3ccc(S(=O)(=O)NCCO)cc3N3CCC4(CC3)CC4)nc(OCCC(F)(F)F)c21 [Compound 501]
12 | ≤ 100 nM | CC1(F)CCN(c2cc(C(=O)Nc3ccc(S(=O)(=O)NCCO)cc3N3CCC4(CC3)CC4)cc3c2OCC3)C1 (stereo not drawn) [Compound 56]
13 | ≤ 100 nM | CC(C)(CO)Nc1nc(NC(=O)c2ccc(S(=O)(=O)NCCO)cc2N2CCC3(CC2)CC3)cc2ccoc12 [Compound 219]
14 | ≤ 100 nM | C[C@H](CO)NS(=O)(=O)c1ccc(C(=O)Nc2cc3c(c(N4CCO[C@H](C)C4)n2)OCC3)c(N2CCC3(CC2)CC3)c1 [Compound 96]
15 | ≤ 100 nM | O=C(Nc1ccc(S(=O)(=O)NCCO)cc1N1CCC2(CC1)CC2)c1cc2ccoc2c(N2CCC(F)CC2)n1 [Compound 249]
16 | ≤ 100 nM | Cn1ccc2cc(C(=O)Nc3ccc(S(=O)(=O)NCCO)cc3N3CCC4(CC3)CC4)cc(NC(C)(C)CO)c21 [Compound 443]
17 | ≤ 100 nM | C[C@@H]1CN(c2nc(NC(=O)c3ccc(NS(=O)(=O)[C@@H](C)CO)cc3N3CCC4(CC3)CC4)cc3c2OCC3)CCO1 [Compound 79]
18 | ≤ 100 nM | C[C@@H](CO)NS(=O)(=O)c1ccc(NC(=O)c2cc(N3CCC(F)(F)CC3)c3occc3c2)c(N2CCC3(CC2)CC3)c1 [Compound 189]
19 | ≤ 100 nM | Cn1ccc2cc(NC(=O)c3ccc(S(=O)(=O)NCCO)cc3N3CCC4(CC3)CC4)cc(N3CCC(F)CC3)c21 [Compound 409]

Row | IC50 | SMILES
20 | ≤ 100 nM | C[C@@H]1CN(c2nc(NC(=O)c3ccc(S(=O)(=O)NCCO)cc3N3CCC4(CC3)CC4)cc3ccoc23)CCO1 [Compound 210]
21 | ≤ 100 nM | C[C@H](CO)S(=O)(=O)Nc1ccc(C(=O)Nc2cc3c(c(N4CCC(F)(F)CC4)n2)OCC3)c(N2CCC3(CC2)CC3)c1 [Compound 78]
22 | ≤ 100 nM | CN1CCc2cc(C(=O)Nc3ccc(S(=O)(=O)NCCO)cc3N3CCC4(CC3)CC4)cc(N3CCC(F)CC3)c21 [Compound 313]
23 | ≤ 100 nM | CC1(F)CCN(c2cc(NC(=O)c3ccc(S(=O)(=O)NCCO)cc3N3CCC4(CC3)CC4)cc3ccoc23)C1 (stereo not drawn) [Compound 152]
24 | ≤ 100 nM | Cn1ccc2cc(C(=O)Nc3ccc(S(=O)(=O)NCCO)cc3N3CCC4(CC3)CC4)cc(N3CCOCC3)c21 [Compound 444]
25 | ≤ 100 nM | Cn1ccc2cc(NC(=O)c3ccc(S(=O)(=O)NCCO)cc3N3CCC4(CC3)CC4)cc(N3CC4CC4C3)c21 (stereo not drawn) [Compound 410]
26 | ≤ 100 nM | O=C(Nc1cc2c(c(N3CC4CC4C3)n1)OCC2)c1ccc(S(=O)(=O)NCCO)cc1N1CCC2(CC1)CC2 (stereo not drawn) [Compound 90]
27 | ≤ 100 nM | C[C@@H]1CN(c2cc(C(=O)Nc3ccc(NS(=O)(=O)CCO)cc3N3CCC4(CC3)CC4)cc3c2OCC3)CCO1 [Compound 34]
28 | ≤ 100 nM | O=C(Nc1cc2c(c(N3CCC(F)CC3)n1)OCC2)c1ccc(NS(=O)(=O)CCO)cc1N1CCC2(CC1)CC2 [Compound 73]
29 | ≤ 100 nM | C[C@H](CO)NS(=O)(=O)c1ccc(NC(=O)c2cc3c(c(N4CCO[C@H](C)C4)n2)OCC3)c(N2CCC3(CC2)CC3)c1 [Compound 128]
30 | ≤ 100 nM | Cn1ccc2cc(NC(=O)c3ccc(NS(=O)(=O)CCO)cc3N3CCC4(CC3)CC4)nc(N3CCC(F)CC3)c21 [Compound 457]
31 | ≤ 100 nM | C[C@@H]1CN(c2nc(NC(=O)c3ccc(S(=O)(=O)N[C@@H](C)CO)cc3N3CCC4(CC3)CC4)cc3ccn(C)c23)CCO1 [Compound 479]
32 | ≤ 100 nM | C[C@H]1CN(c2nc(NC(=O)c3ccc(S(=O)(=O)NCCO)cc3N3CCC4(CC3)CC4)cc3ccn(C)c23)CCO1 [Compound 467]
33 | ≤ 100 nM | O=C(Nc1cc(N2CCC3(CC3)C2)c2occc2c1)c1ccc(S(=O)(=O)NCCO)cc1N1CCC2(CC1)CC2 [Compound 150]
34 | ≤ 100 nM | Cn1ccc2cc(NC(=O)c3ccc(NS(=O)(=O)CCO)cc3N3CCC4(CC3)CC4)cc(N3CCOCC3)c21 [Compound 396]
35 | ≤ 100 nM | O=C(Nc1ccc(NS(=O)(=O)CCO)cc1N1CCC2(CC1)CC2)c1cc(N2CCOCC2)c2occc2c1 [Compound 172]
36 | ≤ 100 nM | CC1(F)CCN(c2cc(NC(=O)c3ccc(S(=O)(=O)NCCO)cc3N3CCC4(CC3)CC4)cc3c2OCC3)C1 (stereo not drawn) [Compound 24]
37 | ≤ 100 nM | C[C@@H](CO)NS(=O)(=O)c1ccc(C(=O)Nc2cc3c(c(N4CCC(F)(F)CC4)c2)OCC3)c(N2CCC3(CC2)CC3)c1 [Compound 29]
38 | ≤ 100 nM | O=C(Nc1cc2c(c(N3CCC(F)(F)CC3)c1)NCCC2)c1ccc(NS(=O)(=O)CCO)cc1N1CCC2(CC1)CC2 [Compound 541]

Row | IC50 | SMILES
39 | ≤ 100 nM | O=C(Nc1ccc(S(=O)(=O)NCCO)cc1N1CCC2(CC1)CC2)c1cc2c(c(N3CCC4(CC4)C3)c1)OCC2 [Compound 54]
40 | ≤ 100 nM | CC1(F)CCN(c2cc(C(=O)Nc3ccc(S(=O)(=O)NCCO)cc3N3CCC4(CC3)CC4)cc3ccoc23)C1 (stereo not drawn) [Compound 184]
41 | ≤ 100 nM | CN1CCc2cc(C(=O)Nc3ccc(NS(=O)(=O)CCO)cc3N3CCC4(CC3)CC4)cc(N3CCOCC3)c21 [Compound 300]
42 | ≤ 100 nM | C[C@@H]1CN(c2cc(C(=O)Nc3ccc(NS(=O)(=O)[C@@H](C)CO)cc3N3CCC4(CC3)CC4)cc3ccn(C)c23)CCO1 [Compound 431]
43 | ≤ 100 nM | CN1CCc2cc(NC(=O)c3ccc(S(=O)(=O)NCCO)cc3N3CCC4(CC3)CC4)nc(N3CC(F)(F)C3)c21 [Compound 340]
44 | ≤ 100 nM | CN1CCc2cc(C(=O)Nc3ccc(NS(=O)(=O)CCO)cc3N3CCC4(CC3)CC4)nc(N3CCC(F)CC3)c21 [Compound 361]
45 | ≤ 100 nM | C[C@H](CO)NS(=O)(=O)c1ccc(NC(=O)c2cc(N3CCC(F)(F)CC3)c3occc3c2)c(N2CCC3(CC2)CC3)c1 [Compound 190]
46 | ≤ 100 nM | CN1CCc2cc(NC(=O)c3ccc(S(=O)(=O)NCCO)cc3N3CCC4(CC3)CC4)nc(N3CCC(F)(F)CC3)c21 [Compound 337]
47 | ≤ 100 nM | CN1CCc2cc(C(=O)Nc3ccc(S(=O)(=O)NCCO)cc3N3CCC4(CC3)CC4)cc(N3CCC4(CC4)C3)c21 [Compound 310]
48 | ≤ 100 nM | O=C(Nc1ccc(S(=O)(=O)NCCO)cc1N1CCC2(CC1)CC2)c1cc(N2CCC(F)(F)CC2)c2occc2c1 [Compound 177]
49 | ≤ 100 nM | C[C@@H]1CN(c2nc(C(=O)Nc3ccc(S(=O)(=O)N[C@@H](C)CO)cc3N3CCC4(CC3)CC4)cc3c2N(C)CC3)CCO1 [Compound 383]
50 | ≤ 100 nM | O=C(Nc1cc2c(c(N3CC(F)(F)C3)c1)OCC2)c1ccc(S(=O)(=O)NCCO)cc1N1CCC2(CC1)CC2 [Compound 20]
51 | ≤ 100 nM | C[C@@H]1CN(c2cc(C(=O)Nc3ccc(NS(=O)(=O)[C@@H](C)CO)cc3N3CCC4(CC3)CC4)cc3c2OCC3)CCO1 [Compound 47]
52 | ≤ 100 nM | C[C@H](CO)NS(=O)(=O)c1ccc(C(=O)Nc2cc3c(c(N4CCC(F)(F)CC4)n2)OCC3)c(N2CCC3(CC2)CC3)c1 [Compound 94]
53 | ≤ 100 nM | Cn1ccc2cc(C(=O)Nc3ccc(S(=O)(=O)NCCO)cc3N3CCC4(CC3)CC4)cc(N3CC4CC4C3)c21 (stereo not drawn) [Compound 442]
54 | ≤ 100 nM | C[C@@H]1CN(c2cc(NC(=O)c3ccc(S(=O)(=O)NCCO)cc3N3CCC4(CC3)CC4)cc3c2OCC3)CCO1 [Compound 18]
55 | ≤ 100 nM | Cn1ccc2cc(C(=O)Nc3ccc(S(=O)(=O)NCCO)cc3N3CCC4(CC3)CC4)nc(NC(C)(C)CO)c21 [Compound 507]
56 | ≤ 100 nM | CN1CCc2cc(NC(=O)c3ccc(NS(=O)(=O)CCO)cc3N3CCC4(CC3)CC4)nc(N3CCC4(CC4)C3)c21 [Compound 326]
57 | ≤ 100 nM | CC(C)(CO)Nc1cc(NC(=O)c2ccc(S(=O)(=O)NCCO)cc2N2CCC3(CC2)CC3)cc2ccoc12 [Compound 155]
